These results are taken from PMC6099706, “Anti-Mycobacterium tuberculosis Activity of Esters of Quinoxaline 1,4-Di-N-Oxide” (Molecules : A Journal of Synthetic Chemistry and Natural …, 2018).

Data set [1] can be described thus: cytotoxicity on macrophages (Alamar blue) and selectivity index. Conditions: mouse, J774A.1 macrophage cells; for CC50 at 96 h: cytotoxicity on macrophage cell J774A.1 at 96 h; for CC50 at 6 h: cytotoxicity on macrophage cell J774A.1 at 6 h. The data set is classed as cell-based, mouse. The protocol: (§1) The determination of the half maximal cytotoxicity concentration (CC50) of the compounds T-006, T-011, T-018, T-022, T-069, T-085, T-088, and T-089 was carried out on the mouse macrophage cell line J774A.1 (ATCC TIB-67). Briefly, cell monolayers were prepared in 96-well plates with 10,000 cells per well in Ham’s F-12 medium supplemented with 10% Fetal bovine serum (FBS, By products, Guadalajara, Mexico) and antibiotics (penicillin and gentamicin). Five concentrations from 100 to 0.5 μg/mL of each of the compounds were tested. The cells were incubated for a period of 6 h (^−) or 96 h (^+). Before completing this period, 20 μL of Alamar blue solution was added to each well, quantifying the relative fluorescence units in a fluorometer (Fluoroskan Ascent FL, Labsystems). The percentage of cytotoxicity at each concentration was determined by comparing the values against the control of cells without treatment. The CC50 was determined with the Probit regression analysis (MedCalc Statistical Software version 18.5, Ostend, Belgium). Selectivity index was calculated as the ratio of the CC50 on the macrophage cell line J774A.1 and the MIC value against M. tuberculosis strain H37Rv.
On the technique in general: Resazurin is reduced to fluorescent resorufin, in cell work by metabolically active cells.

Data set [2] relates to mouse macrophage cell line J774A.1. Described as above. The class given is cell-based. The note with it: ratio of CC50 on J774A.1 and MIC against M. tuberculosis H37Rv. How it is done: as §1
Another data set concerns M. tb H37Rv. As to the kind of experiment: MIC on M. tb H37Rv (Table 4 panel). Conditions: Mycobacterium tuberculosis. The data set is classed as cell-based.
The subject of the next data set is M. fortuitum. Put plainly: MIC on nontuberculous Mycobacterium clinical isolate. The class given is cell-based. Conditions: Mycolicibacterium fortuitum.
The test system of data set [3] is Mycobacterium tuberculosis strain H37Rv. As to the kind of experiment: microplate Alamar blue assay (MABA). The class given is cell-based. The note with it: Mycobacterium tuberculosis, H37RV, M. tuberculosis H37Rv; lowest concentration effecting 90% inhibition.
The test system of another data set is M. chelonae. Put plainly: MIC on nontuberculous Mycobacterium clinical isolate. The data set is classed as cell-based. Conditions: Mycobacteroides chelonae.
A further data set deals with M. abscessus. The data set is described as above. The class given is cell-based. Conditions: Mycobacteroides abscessus.
For data set [4], the system named is nonreplicating persistent (NRP) M. tuberculosis strain. Put plainly: microbe, parasite or virus in culture. The data set is classed as cell-based, Mycobacterium tuberculosis. The note with it: Mycobacterium tuberculosis; nonreplicating persistent strain; read-out: LORA MIC.
In a further data set the test system is M. smegmatis. Put plainly: MIC on nontuberculous Mycobacterium clinical isolate. Conditions: Mycolicibacterium smegmatis. The data set is classed as cell-based.
In a further data set the test system is M. avium. The data set is described as above. The data set is classed as cell-based.
Data set [5] deals with M. tuberculosis gyrase (GyrA and Gyr B subunits) (Mycobacterium tuberculosis, UniProt P9WG45+P9WG47). Put plainly: M. tuberculosis gyrase supercoiling assay. The data set is classed as biochemical. The note with it: at 50 μM. The protocol:
The activity of the enzyme was determined prior to the testing of the quinoxaline 1,4-di-N-oxide derivatives and 1 U was defined as the amount of enzyme required to just fully supercoil the substrate under test conditions. Compounds were tested at 50 μM. Final DMSO concentration in the assays was 1% (v/v).
1 U of M. tuberculosis gyrase (GyrA and Gyr B subunits) (final concentration in assay 50 nM) was incubated with 0.5 μg of relaxed pBR322 DNA in a 30 μL reaction at 37 °C for 30 min under the following conditions: 50 mM HEPES. KOH (pH 7.9), 6 mM magnesium acetate, 4 mM DTT, 1 mM ATP, 100 mM potassium glutamate, 2 mM spermidine and 0.05 mg/mL albumin.
Each reaction was stopped by the addition of 30 μL chloroform/iso-amyl alcohol (26:1) and 20 μL Stop Dye (40% sucrose, 100 mM Tris.HCl (pH 7.5), 10 mM EDTA, 0.5 μg/mL bromophenol blue), before being loaded on a 1.0% TAE (Tris.acetate […], EDTA […]) gel run at 80 V for 2 h.
Bands were visualized by ethidium staining for 10 min, destained for 10 min in water, analyzed by gel documentation equipment (Syngene, Cambridge, UK), and quantified using Syngene software (Genetools version 4.00 (1997–1998), Syngene, A division of Synoptics Corp, Cambridge, UK).
Raw gel data (fluorescent band volumes) collected from Syngene’s GeneTools gel analysis software were converted to a % of the 100% control (the supercoiled enzyme plus DMSO control DNA band). These were analyzed using SigmaPlot Version 13.0 (Systat Software Inc., London, UK; 2016).

Data set [6] can be described thus: stability in human plasma by UPLC-MS. The data set is classed as in vitro ADME. Conditions: 37 °C, 24 h. The protocol:
Compounds T-018 and T-069 were selected to analyze their stability in human plasma. A total of 1 mg of each of the two compounds was dissolved in 1 mL of dichlorometane. Then, 0.1 mL was added to 0.9 mL of 0.1% formic acid in acetonitrile for analysis by UPLC with an ACQUITY QDa mass detector from Waters (Milford, MA, USA) under the following conditions: column: ACQUITY UPLC® BEH C18 1.7 µm, 2.1 × 100 mm; mobile phase: 0.1% formic acid/acetonitrile; run time: 5 min; flow rate: 0.3 mL/min; injection volume: 0.5 µL; temperature: 40 °C. After that, 3 mL of human plasma was obtained from a volunteer under medical supervision and following the standard procedures. Then, 1 mg of T-018 and T-069 were dissolved with DMSO 2% and added to 1 mL of human plasma. Samples were incubated at 37 °C for 12 and 24 h. T-018 and T-069 were obtained by liquid extraction with dichloromethane (10 mL) three times and the solvent was eliminated for vacuum pressure. After that, 1 mL of dichlorometane was added and 0.1 mL was added to 0.9 mL of 0.1% formic acid in acetonitrile and analyzed by UPLC-MS. Percentage of degradation was calculated considering the area under the curve of each peak/the area under the curve of all peaks × 100% at 24 h only.

Converted amounts (≈) assume the structure as drawn.

M. tuberculosis gyrase (GyrA and Gyr B subunits), sequence (P9WG45 whole entry): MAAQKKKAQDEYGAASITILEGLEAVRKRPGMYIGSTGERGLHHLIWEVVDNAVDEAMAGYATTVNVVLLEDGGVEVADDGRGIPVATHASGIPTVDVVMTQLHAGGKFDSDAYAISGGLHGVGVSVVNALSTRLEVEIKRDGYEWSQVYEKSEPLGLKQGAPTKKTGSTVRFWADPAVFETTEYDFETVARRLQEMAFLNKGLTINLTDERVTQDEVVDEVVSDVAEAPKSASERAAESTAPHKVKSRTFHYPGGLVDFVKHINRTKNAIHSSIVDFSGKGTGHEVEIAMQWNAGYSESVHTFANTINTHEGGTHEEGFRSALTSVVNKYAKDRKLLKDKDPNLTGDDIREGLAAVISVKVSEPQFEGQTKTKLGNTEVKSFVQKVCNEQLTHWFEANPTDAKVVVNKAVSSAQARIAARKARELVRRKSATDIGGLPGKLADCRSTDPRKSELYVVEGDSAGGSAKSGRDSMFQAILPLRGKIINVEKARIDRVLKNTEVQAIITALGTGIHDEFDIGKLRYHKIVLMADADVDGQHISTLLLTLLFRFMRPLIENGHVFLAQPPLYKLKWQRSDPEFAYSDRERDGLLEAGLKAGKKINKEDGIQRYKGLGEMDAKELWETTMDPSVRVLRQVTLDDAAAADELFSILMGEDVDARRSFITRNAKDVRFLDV
M. tuberculosis gyrase (GyrA and Gyr B subunits), sequence (P9WG47 whole entry): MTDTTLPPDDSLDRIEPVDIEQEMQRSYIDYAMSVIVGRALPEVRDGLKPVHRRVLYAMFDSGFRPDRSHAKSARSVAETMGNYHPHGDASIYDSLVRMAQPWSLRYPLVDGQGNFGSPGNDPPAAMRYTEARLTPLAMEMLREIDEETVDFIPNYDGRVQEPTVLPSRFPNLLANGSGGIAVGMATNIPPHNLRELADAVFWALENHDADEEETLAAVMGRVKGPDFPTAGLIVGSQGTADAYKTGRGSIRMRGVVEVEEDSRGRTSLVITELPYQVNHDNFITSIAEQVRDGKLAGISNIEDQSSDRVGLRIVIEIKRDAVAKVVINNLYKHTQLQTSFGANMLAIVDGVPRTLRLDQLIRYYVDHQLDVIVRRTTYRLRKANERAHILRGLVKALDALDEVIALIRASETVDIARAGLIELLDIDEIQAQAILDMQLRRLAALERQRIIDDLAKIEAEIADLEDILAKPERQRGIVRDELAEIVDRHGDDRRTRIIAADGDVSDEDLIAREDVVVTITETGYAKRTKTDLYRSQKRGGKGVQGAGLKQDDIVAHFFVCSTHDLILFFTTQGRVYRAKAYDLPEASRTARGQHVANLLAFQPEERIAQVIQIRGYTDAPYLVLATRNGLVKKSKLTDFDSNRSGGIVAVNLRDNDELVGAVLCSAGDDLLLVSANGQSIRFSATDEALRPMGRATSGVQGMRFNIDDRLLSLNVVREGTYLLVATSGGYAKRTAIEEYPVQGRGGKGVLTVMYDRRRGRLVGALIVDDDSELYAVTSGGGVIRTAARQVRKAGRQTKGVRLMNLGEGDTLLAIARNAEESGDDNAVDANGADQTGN

One may read the CC50 as the concentration that lowers cell viability or growth by half. A high value points to better tolerance by the cells. Compound `CCOC(=O)c1ccc2c(c1)[n+]([O-])c(C(C)=O)c(C(F)(F)F)[n+]2[O-]` [Compound T-006] displayed a 50% cytotoxic concentration (CC50) at 96 h in data set [1] above 100 µg/mL. For the same compound, the “SI (selectivity index)” value in data set [2] is given as above 50. The MIC against M. tb H37Rv was 2 µg/mL (≈ 5.81 µM); in the data set with M. fortuitum, above 10 µg/mL; in [3], 0.29 µg/mL (≈ 0.842 µM); with M. chelonae it was above 10 µg/mL; against M. abscessus, above 10 µg/mL; in data set [4], 0.42 µg/mL (≈ 1.22 µM). The MIC in the data set with M. smegmatis is above 10 µg/mL; with M. avium, 2.5 µg/mL (≈ 7.26 µM).
Consider `CCOC(=O)c1ccc2c(c1)[n+]([O-])c(C(=O)c1cccs1)c(C(F)(F)F)[n+]2[O-]` [Compound T-011], for which, in data set [1], the CC50 at 6 h turned out to be 1.67 µg/mL (≈ 4.05 µM). Moreover, the “SI (selectivity index)” value in [2] is given as 3.34. Besides, the MIC with M. tb H37Rv is 0.5 µg/mL (≈ 1.21 µM); in the data set with M. fortuitum, 2.5 µg/mL (≈ 6.06 µM); in [3], at most 0.15 µg/mL; against M. chelonae, above 10 µg/mL; against M. abscessus it was above 10 µg/mL; in data set [4], 0.21 µg/mL (≈ 0.509 µM). The MIC with M. smegmatis is 0.62 µg/mL (≈ 1.5 µM); against M. avium, below 0.31 µg/mL. Moreover, the “inhibitory effect on M. tuberculosis gyrase supercoiling” value (shortened to “inhibitory effect”) in data set [5] is “none of the compounds showed an inhibitory effect”.
As to `COC(=O)c1ccc2c(c1)[n+]([O-])c(C(=O)c1ccccc1)c(C(F)(F)F)[n+]2[O-]` [Compound T-018], in [1], it took 35.4 µg/mL (≈ 90.2 µM) to reach half-maximal cytotoxicity (CC50 at 6 h). In addition, the “SI (selectivity index)” value in data set [2] is on record as 35.37. In addition, the MIC in the data set with M. tb H37Rv was 1 µg/mL (≈ 2.55 µM); in the data set with M. fortuitum, above 10 µg/mL; in data set [3] it was at most 0.15 µg/mL; with M. chelonae it was above 10 µg/mL; with M. abscessus, 5 µg/mL (≈ 12.7 µM); in [4], 0.34 µg/mL (≈ 0.867 µM). In addition, the MIC with M. smegmatis and against M. avium was 2.5 µg/mL (≈ 6.37 µM) throughout. Moreover, in data set [5], the “inhibitory effect” value is “none of the compounds showed an inhibitory effect”.
`COC(=O)c1ccc2c(c1)[n+]([O-])c(C(=O)OC)c(C)[n+]2[O-]` [Compound T-022] displayed a CC50 at 96 h in data set [1] of 86.2 µg/mL (≈ 295 µM). In addition, the MIC is 0.5 µg/mL (≈ 1.71 µM) against M. tb H37Rv; 2.5 µg/mL (≈ 8.55 µM) in the data set with M. fortuitum; 0.29 µg/mL (≈ 0.992 µM) in [3]; 2.5 µg/mL (≈ 8.55 µM) against M. chelonae; above 10 µg/mL against M. abscessus; 0.56 µg/mL (≈ 1.92 µM) in data set [4]. Besides, the MIC in the data set on M. smegmatis amounted to 0.62 µg/mL (≈ 2.12 µM); against M. avium, 2.5 µg/mL (≈ 8.55 µM).
For the compound `CC(C)OC(=O)c1ccc2c(c1)[n+]([O-])c(C(=O)c1cccs1)c(C(F)(F)F)[n+]2[O-]` [Compound T-069], the midpoint of cytotoxicity in data set [1], the CC50 at 6 h, lay at 41.3 µg/mL (≈ 96.8 µM). Moreover, in data set [2], the “SI (selectivity index)” value is listed as 41.26. Besides, the “stability in human plasma” value in [6] is reported as “high stability”. In addition, the MIC against M. tb H37Rv is 1 µg/mL (≈ 2.35 µM); against M. fortuitum, above 10 µg/mL; in data set [3] it was at most 0.15 µg/mL; in the data set on M. chelonae, 2.5 µg/mL (≈ 5.86 µM); against M. abscessus, above 10 µg/mL; in data set [4] it was 0.23 µg/mL (≈ 0.539 µM). In addition, the MIC against M. smegmatis was above 10 µg/mL; in the data set on M. avium, 5 µg/mL (≈ 11.7 µM). The “inhibitory effect” value in data set [5] is given as “none of the compounds showed an inhibitory effect”.
Regarding `CC(C)OC(=O)c1ccc2c(c1)[n+]([O-])c(C(=O)C(C)C)c(C(F)(F)F)[n+]2[O-]` [Compound T-085], it took 45.4 µg/mL (≈ 118 µM) to reach half-maximal cytotoxicity in [1] (CC50 at 6 h). Also, in data set [2], the “SI (selectivity index)” value is reported as 45.42. Also, the MIC with M. tb H37Rv was 1 µg/mL (≈ 2.59 µM); against M. fortuitum, 2.5 µg/mL (≈ 6.47 µM); in data set [3], at most 0.15 µg/mL; with M. chelonae, 5 µg/mL (≈ 12.9 µM); in the data set with M. abscessus it was 2.5 µg/mL (≈ 6.47 µM); in [4] it was 0.13 µg/mL (≈ 0.337 µM). Further, the figures for the MIC in the data set with M. smegmatis and against M. avium were 1.25 µg/mL (≈ 3.24 µM) and 0.62 µg/mL (≈ 1.6 µM), respectively.
In the case of `CCCOC(=O)c1ccc2c(c1)[n+]([O-])c(C(=O)OC)c(C)[n+]2[O-]` [Compound T-088], in data set [1], the CC50 at 96 h came out at 36.5 µg/mL (≈ 114 µM). The “SI (selectivity index)” value in data set [2] is on record as 73.02. Further, the MIC with M. tb H37Rv is 0.5 µg/mL (≈ 1.56 µM); in the data set on M. fortuitum it was above 10 µg/mL; in [3], at most 0.15 µg/mL; with M. chelonae, above 10 µg/mL; in the data set with M. abscessus, above 10 µg/mL; in data set [4], 0.27 µg/mL (≈ 0.843 µM). The MIC in the data set on M. smegmatis was 2.5 µg/mL (≈ 7.81 µM); in the data set on M. avium, above 10 µg/mL.
In data set [1], `CCCOC(=O)c1ccc2c(c1)[n+]([O-])c(C(=O)c1cccs1)c(C(F)(F)F)[n+]2[O-]` [Compound T-089] showed a CC50 at 6 h of 24.3 µg/mL (≈ 56.9 µM). The “SI (selectivity index)” value in [2] came to 48.54. In addition, the MIC was 0.5 µg/mL (≈ 1.17 µM) against M. tb H37Rv; above 10 µg/mL against M. fortuitum; 0.12 µg/mL (≈ 0.281 µM) in data set [3]; above 10 µg/mL in the data set with M. chelonae; above 10 µg/mL in the data set on M. abscessus; 0.15 µg/mL (≈ 0.352 µM) in data set [4]. The MIC against M. smegmatis was above 10 µg/mL; in the data set with M. avium, 0.62 µg/mL (≈ 1.45 µM).
For `CO[C@H]1/C=C/O[C@@]2(C)Oc3c(C)c(O)c4c(O)c(c(/C=N/N5CCN(C)CC5)c(O)c4c3C2=O)NC(=O)/C(C)=C\C=C\[C@H](C)[C@H](O)[C@@H](C)[C@@H](O)[C@@H](C)[C@H](OC(C)=O)[C@@H]1C` [RMP, rifampicin, reference compound], the MIC against M. tb H37Rv is below 0.06 µg/mL; in data set [3], 0.03 µg/mL (≈ 0.0365 µM); in [4], 0.89 µg/mL (≈ 1.08 µM).
